From patent US12180235B1, “Fabrication of novel nano-sized [4{3,4-bis-[(5-bromo-2-hydroxy-benzylidene)-amino]-phenyl }-phenyl-methanone] Ru(III) complex for pharmaceutical applications” (KING FAISAL UNIVERSITY, priority 2024, dated 2024)
In brackets after ≈: the same amount, converted by molar mass. Where two headings read alike, the source gives them in different places.

Tests used:
Type in all cases: cell-based
Pseudomonas aeruginosa [1] = test: Minimum inhibitory concentration, serial broth dilution (bacteria)
Procedure: (§1) Minimum inhibitory concentrations (MICs) are defined as the lowest concentration of an antimicrobial that will inhibit the visible growth of a microorganism after overnight incubation. MICs are used by diagnostic laboratories mainly to confirm resistance of microorganism to antimicrobial agents and also to monitor the activity of new antimicrobial agents. MIC was determined in vitro in liquid medium by serial broth dilution method.

Pseudomonas aeruginosa [2] = test: Antibacterial screening, agar well diffusion method; details: 24 hours at 37° C.
Procedure: The susceptibilities of such growth rate of microorganisms were measured in vitro by agar well diffusion method. The tested nano complex was dissolved in dimethylsulfoxide at different concentrations (10 and 20 mg/ml). 1 cm^3 of a 24 h broth culture containing 10^6 CFU/cm^3 was placed in sterile Petri-dishes. Molten nutrient agar (15 cm^3) maintained at 45° C. was then poured into the Petri-dishes and allowed to solidify. Then holes of 6 mm diameter were formed in the agar using a sterile cork borer and these holes were completely filled with the test solutions. The plates were incubated for 24 hours at 37° C. After the incubation period, the zone of inhibition of each well was determined by measuring the zones of growth inhibition (mm) against the test microorganisms with zone reader (Hi Antibiotic zone scale). […] The measurements were made in triplicate for each compound and their average values are reported.

Aspergillus Flavus [3] = test: Minimum inhibitory concentration, serial broth dilution (fungus)
Procedure: as §1

Aspergillus Flavus [4] = test: Antifungal screening, well diffusion method; details: 35° C. for 7 days
Procedure: Antifungal activities of the prepared nano-complex were studied against three fungal cultures using well diffusion method. The tested fungi were inoculated in Sabouraud dextrose broth medium (Hi-Media Mumbai) and incubated at 35° C. for 72 h and subsequently a suspension of about 1.60×10^4-6.00×10^4 c.f.u/ml was introduced agar plates and a sterile glass spreader was used for even distribution of the inoculum. The discs measuring 6 mm in diameter were prepared from Whatman No. 1 filter paper and sterilized by dry heat at 140° C. for 1 h. The sterile discs previously soaked in known concentration of the tested compounds were placed in Sabouraud dextrose Agar (SDA) plates. The plates were inverted and incubated at 35° C. for 7 days. The susceptibility was assessed on the basis of diameter of inhibition against albicans and non-albicans strain of fungi.

Colon cancer cells line = test: Cytotoxic activity, Sulfo-Rhodamine-B-stain (SRB) assay; details: colon cancer cell line, 48 hrs
Procedure: The anticancer activity was made at the National Cancer Institute, Cancer Biology Department, Pharmacology Department, Cairo University. The absorbance or optical density (O.D.) of each well was measured spectrophotometrically at 564 (nm) with an “ELIZA” micro plate reader (Meter tech. Σ 960, “USA”). Evaluation of the cytotoxic activity of the prepared nano-complex was carried out against Colon cancer cells line. The evaluation process was carried out in vitro using the Sulfo-Rhodamine-B-stain (SRB). Cells were placed in 96-multiwell plate (10^4 cells/well) for 24 hrs before processing with the complexes to allow attachment of cell to the wall of the plate. Various concentrations of the compounds under test in DMSO (0, 1, 2.5, 5 and 10 µM) were added to the cell monolayer. Monolayer cells were incubated with the complexes for 48 hrs at 37° C. and in atmosphere of 5% CO2. After 48 hrs, cells were fixed, rinsed, and stained with Sulfo-Rhodamine-B-stain. Excess stain was washed with acetic acid and attached stain was treated with Tris EDTA buffer. Color intensity was measured in an ELISA reader. IC50 was evaluated and potency was calculated with regard to percentage of change of (vistabline standard). The relation between surviving fraction and compound concentration is plotted to get the survival curve of each tumor cell line after the specified compound. […]

| MIC (Pseudomonas aeruginosa [1]; read-out: MIC) [µg/mL] | Molecule | inhibition zone (Pseudomonas aeruginosa [2]) [mm] | MIC (Pseudomonas aeruginosa [1]) [µg/mL] | MIC (Aspergillus Flavus [3]) [µg/mL] | inhibition zone (Aspergillus Flavus [4]) [mm] | IC50 (Colon cancer cells line) [µM] |
| --- | --- | --- | --- | --- | --- | --- |
| 2.25 (≈ 6.23 µM) | CC1COc2c(N3CCN(C)CC3)c(F)cc3c(=O)c(C(=O)O)cn1c23 (stereo not drawn) [Ofloxacin] | 38 |  |  |  |  |
|  | [4{3,4-bis-[(5-bromo-2-hydroxy-benzylidene)-amino]-phenyl}-phenyl-methanone] Ru(III) complex [prepared nano complex] | 42 | 1.5 | 2.00 | 30 |  |
|  | CC[C@]1(O)C[C@@H]2CN(CCc3c([nH]c4ccccc34)[C@@](C(=O)OC)(c3cc4c(cc3OC)N(C)[C@H]3[C@@](O)(C(=O)OC)[C@H](OC(C)=O)[C@]5(CC)C=CCN6CC[C@]43[C@@H]65)C2)C1 [vinblastine] |  |  |  |  | 5.7 |
|  | OC(Cn1cncn1)(Cn1cncn1)c1ccc(F)cc1F [Flucazanol] |  |  | 2.50 (≈ 8.16 µM) | 27 |  |
